± gives the expanded uncertainty stated by the source.

These results are taken from the NIST ThermoML archive (doi:10.1021/je400722h).

For data set [1] the following is noted: 101 kPa, Liquid; for speed of sound: Pulse-echo method; for mass density: Vibrating tube method.
A short description of data set [2]: xn = mol fraction of the nth substance listed. To be noted: 101 kPa, Liquid, x2 = 0; for speed of sound: Pulse-echo method; for mass density: Vibrating tube method.

As usually defined, the speed of sound is how fast a sound wave travels through the sample. What is called mass density is the mass of a sample divided by its volume. Regarding `C1COCO1` [1,3-dioxolane], the results for the speed of sound in data set [1] (298.15 K), in data set [1] (303.15 K) and in data set [1] (308.15 K) were 1338.7 ± 1.1 m/s, 1316.8 ± 1 m/s and 1294.7 ± 1 m/s, respectively. Moreover, the figures for the mass density in data set [1] (298.15 K), in data set [1] (303.15 K) and in data set [1] (308.15 K) were 1058.9 ± 1 kg/m3, 1052.6 ± 1 kg/m3 and 1046.3 ± 1 kg/m3, respectively.

Regarding `C1COCO1` [1,3-dioxolane] + Cc1ccccc1Cl, the speed of sound in data set [2] (298.15 K) turned out to be 1338.7 ± 1.1 m/s; in data set [2] (303.15 K) it was 1316.8 ± 1 m/s; in data set [2] (308.15 K), 1294.7 ± 1 m/s. Also, the mass density in data set [2] (298.15 K) is on record as 1058.9 ± 1 kg/m3; in data set [2] (303.15 K) it was 1052.6 ± 1 kg/m3; in data set [2] (308.15 K) it was 1046.3 ± 1 kg/m3.

As to `C1COCCO1` [1,4-dioxane], the speed of sound in data set [1] (298.15 K) turned out to be 1346 ± 1.1 m/s; in data set [1] (303.15 K) it was 1324.4 ± 1.1 m/s; in data set [1] (308.15 K) it was 1302.5 ± 1.1 m/s. Besides, the mass density in data set [1] (298.15 K) came out at 1027.9 ± 1 kg/m3; in data set [1] (303.15 K) it was 1022.3 ± 1 kg/m3; in data set [1] (308.15 K), 1016.6 ± 1 kg/m3.

In the case of `C1COCCO1` [1,4-dioxane] + Cc1ccccc1Cl, the speed of sound is given as 1346 ± 1.1 m/s in data set [2] (298.15 K), 1324.4 ± 1.1 m/s in data set [2] (303.15 K) and 1302.5 ± 1.1 m/s in data set [2] (308.15 K). Moreover, the mass density in data set [2] (298.15 K) came out at 1027.9 ± 1 kg/m3; in data set [2] (303.15 K), 1022.3 ± 1 kg/m3; in data set [2] (308.15 K), 1016.6 ± 1 kg/m3.

As for `Cc1ccccc1Cl` [2-chlorotoluene], the speed of sound in data set [1] (298.15 K) was 1298.7 ± 1.2 m/s; in data set [1] (303.15 K), 1280.7 ± 1.2 m/s; in data set [1] (308.15 K), 1262.7 ± 1.2 m/s. Also, the mass density in data set [1] (298.15 K) is on record as 1077.3 ± 1 kg/m3; in data set [1] (303.15 K) it was 1072.5 ± 1 kg/m3; in data set [1] (308.15 K) it was 1067.6 ± 1 kg/m3.

Turning to `C1CCOCC1` [tetrahydropyran], the speed of sound in data set [1] (298.15 K) is 1269.8 ± 1 m/s; in data set [1] (303.15 K) it was 1246.8 ± 1 m/s; in data set [1] (308.15 K), 1224.4 ± 1 m/s. The values for the mass density in data set [1] (298.15 K), in data set [1] (303.15 K) and in data set [1] (308.15 K) were 879.13 ± 1 kg/m3, 873.99 ± 1 kg/m3 and 868.83 ± 1 kg/m3, respectively.

With `C1CCOCC1` [tetrahydropyran] + Cc1ccccc1Cl, the speed of sound in data set [2] (298.15 K) came to 1269.8 ± 1 m/s; in data set [2] (303.15 K), 1246.8 ± 1 m/s; in data set [2] (308.15 K) it was 1224.4 ± 1 m/s. Also, the values for the mass density in data set [2] (298.15 K), in data set [2] (303.15 K) and in data set [2] (308.15 K) were 879.13 ± 1 kg/m3, 873.99 ± 1 kg/m3 and 868.83 ± 1 kg/m3, respectively.
